Measured values reported in US9663496B2, “AMPK-activating heterocyclic compounds and methods for using the same” (Rigel Pharmaceuticals, Inc., priority 2010, dated 2017).

Biological target: AMPK
Assay: AMPK activation, enzyme-linked immunosorbent assay
Type: biochemical
Conditions: EC50 for AMPK activation, ELISA
In short: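 Test compounds were added, and kinase activation was then detected by immunoassay following established kit procedures.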

Row | Structure (SMILES) | EC50 [nM]
1 | COc1cccc(CN2CCC(NC(=O)c3ccc(C(=O)N4CCC(S(=O)(=O)c5ccc(F)cc5)CC4)nc3)CC2)c1 [Compound 475, 6-(4-(4-fluorophenylsulfonyl)piperidine-1-carbonyl)-N-(1-(3-methoxybenzyl)piperidin-4-yl)nicotinamide] | 1000 to 5000
2 | N#Cc1ccc(Oc2ccc(NC(=O)c3ccc(C(=O)N4CCN(Cc5ccc(F)cc5)CC4)nc3)cn2)cc1 [Compound 476, N-(6-(4-cyanophenoxy)pyridin-3-yl)-6-(4-(4-fluorobenzyl)piperazine-1-carbonyl)nicotinamide] | < 500
3 | CC(=O)c1ccc(Oc2ccc(NC(=O)c3ccc(C(=O)N4CCN(Cc5ccc(F)cc5)CC4)nc3)cn2)cc1 [Compound 477, N-(6-(4-acetylphenoxy)pyridin-3-yl)-6-(4-(4-fluorobenzyl)piperazine-1-carbonyl)nicotinamide] | < 500
4 | COc1ccc(C(=O)C2CCN(C(=O)c3ccc(C(=O)Nc4ccc(Oc5ccc(C#N)cc5)nc4C)cn3)CC2)cc1 [Compound 478, N-(6-(4-cyanophenoxy)-2-methylpyridin-3-yl)-6-(4-(4-methoxybenzoyl)piperidine-1-carbonyl)nicotinamide] | < 500
5 | Cc1nc(Oc2ccc(C#N)cc2)ccc1NC(=O)c1ccc(C(=O)N2CCC(C(=O)c3ccc(F)cc3F)CC2)nc1 [Compound 479, N-(6-(4-cyanophenoxy)-2-methylpyridin-3-yl)-6-(4-(2,4-difluorobenzoyl)piperidine-1-carbonyl)nicotinamide] | < 500
6 | COc1ccc(C(=O)C2CCN(C(=O)c3ccc(C(=O)Nc4ccc(Oc5ccc(C(=O)N(C)C)cc5)nc4)cn3)CC2)cc1 [Compound 480, N-(6-(4-(dimethylcarbamoyl)phenoxy)pyridin-3-yl)-6-(4-(4-methoxybenzoyl)piperidine-1-carbonyl)nicotinamide] | < 500
7 | CN(C)C(=O)c1ccc(Oc2ccc(NC(=O)c3ccc(C(=O)N4CCC(C(=O)c5ccc(F)cc5F)CC4)nc3)cn2)cc1 [Compound 481, 6-(4-(2,4-difluorobenzoyl)piperidine-1-carbonyl)-N-(6-(4-(dimethylcarbamoyl)phenoxy)pyridin-3-yl)nicotinamide] | < 500
8 | COc1ccc(C(=O)C2CCN(C(=O)c3ccc(C(=O)N(C)C4CCN(Cc5ccc(C#N)cc5)CC4)cn3)CC2)cc1 [Compound 482, N-(1-(4-cyanobenzyl)piperidin-4-yl)-6-(4-(4-methoxybenzoyl)piperidine-1-carbonyl)-N-methylnicotinamide] | < 500
9 | COc1ccc(C(=O)C2CCN(C(=O)c3ccc(C(=O)N(C)C4CCN(Cc5ccc(OC(F)(F)F)cc5)CC4)cn3)CC2)cc1 [Compound 483, 6-(4-(4-methoxybenzoyl)piperidine-1-carbonyl)-N-methyl-N-(1-(4-(trifluoromethoxy)benzyl)piperidin-4-yl)nicotinamide] | < 500
10 | COc1ccc(CN2CCC(N(C)C(=O)c3ccc(C(=O)N4CCC(C(=O)c5ccc(OC)cc5)CC4)nc3)CC2)cc1 [Compound 484, 6-(4-(4-methoxybenzoyl)piperidine-1-carbonyl)-N-(1-(4-methoxybenzyl)piperidin-4-yl)-N-methylnicotinamide] | < 500
11 | CC(=O)c1ccc(Oc2ccc(NC(=O)c3ccc(C(=O)N4CCC(Oc5ccc(S(C)(=O)=O)cc5)CC4)nc3)cn2)cc1 [Compound 485, N-(6-(4-acetylphenoxy)pyridin-3-yl)-6-(4-(4-(methylsulfonyl)phenoxy)piperidine-1-carbonyl)nicotinamide] | < 500
12 | CC(=O)c1ccc(Oc2ccc(NC(=O)c3ccc(C(=O)N4CCC(Oc5ccc(S(=O)(=O)C6CC6)cc5)CC4)nc3)cn2)cc1 [Compound 486, N-(6-(4-acetylphenoxy)pyridin-3-yl)-6-(4-(4-(cyclopropylsulfonyl)phenoxy)piperidine-1-carbonyl)nicotinamide] | < 500
13 | CC(=O)c1ccc(Oc2ccc(NC(=O)c3ccc(C(=O)N4CCN(c5ccc(S(C)(=O)=O)cc5)CC4)nc3)cn2)cc1 [Compound 487, N-(6-(4-acetylphenoxy)pyridin-3-yl)-6-(4-(4-(methylsulfonyl)phenyl)piperazine-1-carbonyl)nicotinamide] | 1000 to 5000
14 | CC(=O)c1ccc(Oc2ccc(NC(=O)c3ccc(C(=O)N4CCC(Oc5ccc(C(=O)N(C)C)cc5)CC4)nc3)cn2)cc1 [Compound 488, N-(6-(4-acetylphenoxy)pyridin-3-yl)-6-(4-(4-(dimethylcarbamoyl)phenoxy)piperidine-1-carbonyl)nicotinamide] | < 500

The remaining lines, values ahead:

Row | EC50 [nM] | Structure (SMILES)
15 | < 500 | CC(=O)c1ccc(Oc2ccc(NC(=O)c3ccc(C(=O)N4CCN(c5ccc(S(=O)(=O)C(C)C)cc5)CC4)nc3)cn2)cc1 [Compound 489, N-(6-(4-acetylphenoxy)pyridin-3-yl)-6-(4-(4-(isopropylsulfonyl)phenyl)piperazine-1-carbonyl)nicotinamide]
16 | 1000 to 5000 | COc1ccc(C(=O)C2CCN(C(=O)c3ccc(C(=O)NC4CCN(Cc5ccc(C(=O)N(C)C)cc5)CC4)cn3)CC2)cc1 [Compound 490, N-(1-(4-(dimethylcarbamoyl)benzyl)piperidin-4-yl)-6-(4-(4-methoxybenzoyl)piperidine-1-carbonyl)nicotinamide]
17 | 1000 to 5000 | N#Cc1ccc(CN2CCC(NC(=O)c3ccc(N4CCN(Cc5ccc(F)cc5)CC4)nn3)CC2)cc1 [Compound 491, N-(1-(4-cyanobenzyl)piperidin-4-yl)-6-(4-(4-fluorobenzyl)piperazin-1-yl)pyridazine-3-carboxamide]
18 | < 500 | N#Cc1ccc(CN2CCC(NC(=O)c3ccc(C(=O)N4CCC(Oc5ccc(S(F)(F)(F)(F)F)cc5)CC4)cn3)CC2)cc1 [Compound 492, N-(1-(4-cyanobenzyl)piperidin-4-yl)-5-(4-(4-(pentafluorosulfanyl)phenoxy)piperidine-1-carbonyl)picolinamide]
19 | < 500 | N#Cc1ccc(CN2CCC(NC(=O)c3ccc(C(=O)N4CCC(Oc5ccc(S(F)(F)(F)(F)F)cc5)CC4)nc3)CC2)cc1 [Compound 493, N-(1-(4-cyanobenzyl)piperidin-4-yl)-6-(4-(4-(pentafluorosulfanyl)phenoxy)piperidine-1-carbonyl)nicotinamide]
20 | < 500 | O=C(NC1CCN(Cc2ccc(OC(F)(F)F)cc2)CC1)c1ccc(C(=O)N2CCC(Oc3ccc(S(F)(F)(F)(F)F)cc3)CC2)nc1 [Compound 494, 6-(4-(4-(pentafluorosulfanyl)phenoxy)piperidine-1-carbonyl)-N-(1-(4-(trifluoromethoxy)benzyl)piperidin-4-yl)nicotinamide]
21 | < 500 | COc1ccc(CN2CCC(NC(=O)c3ccc(C(=O)N4CCC(Oc5ccc(S(F)(F)(F)(F)F)cc5)CC4)nc3)CC2)cc1 [Compound 495, N-(1-(4-methoxybenzyl)piperidin-4-yl)-6-(4-(4-(pentafluorosulfanyl)phenoxy)piperidine-1-carbonyl)nicotinamide]
22 | < 500 | O=C(Nc1ccc(Oc2ccc(F)cc2)nc1)c1ccc(C(=O)N2CCC(Oc3ccc(S(F)(F)(F)(F)F)cc3)CC2)nc1 [Compound 496, N-(6-(4-fluorophenoxy)pyridin-3-yl)-6-(4-(4-(pentafluorosulfanyl)phenoxy)piperidine-1-carbonyl)nicotinamide]
23 | < 500 | N#Cc1ccc(Oc2ccc(NC(=O)c3ccc(C(=O)N4CCC(Oc5ccc(S(F)(F)(F)(F)F)cc5)CC4)nc3)cn2)cc1 [Compound 497, N-(6-(4-cyanophenoxy)pyridin-3-yl)-6-(4-(4-(pentafluorosulfanyl)phenoxy)piperidine-1-carbonyl)nicotinamide]
24 | < 500 | COc1ccc(C(=O)C2CCN(C(=O)c3ccc(C(=O)NC4CCN(Cc5ccc(C#N)cc5)CC4(F)F)cn3)CC2)cc1 (stereo not drawn) [Compound 498, N-(1-(4-cyanobenzyl)-3,3-difluoropiperidin-4-yl)-6-(4-(4-methoxybenzoyl)piperidine-1-carbonyl)nicotinamide]
